Data reported in patent US20210277246A1, “PROBE FOR DETECTING CARBAPENEM-RESISTANT BACTERIA AND USE THEREOF” (priority 2018, published 2021).

What was measured:
Assay in all cases: MIC of carbapenems for isolates
Assay type in all cases: cell-based
[1] = test system: Citrobacter freundii (NDM); conditions: 1 isolate
[2] = test system: Morganella morganii (NDM); conditions: 1 isolate
[3] = test system: Klebsiella pneumoniae (GES); conditions: 1 isolate
[4] = test system: Klebsiella pneumoniae (NDM); conditions: 1 isolate
[5] = test system: Citrobacter freundii (OXA); conditions: 1 isolate
Escherichia coli (IMP) = conditions: 1 isolate
[6] = test system: Citrobacter freundii (KPC); conditions: 1 isolate
Escherichia coli (NDM) = conditions: 4 isolates
[7] = test system: Klebsiella pneumoniae (NDM/OXA); conditions: NDM/OXA co-producing, 1 isolate
Klebsiella oxytoca (VIM) = conditions: 1 isolate
Escherichia coli (KPC) = conditions: 3 isolates
[8] = test system: Enterobacter cloacae (NDM); conditions: 2 isolates
[9] = test system: Enterobacter cloacae (VIM); conditions: 1 isolate
[10] = test system: Klebsiella aerogenes (KPC); conditions: 1 isolate
[11] = test system: Escherichia coli (non-producer); conditions: 32 isolates
Klebsiella oxytoca (KPC) = conditions: 1 isolate
[12] = test system: Klebsiella pneumoniae (VIM); conditions: 1 isolate
[13] = test system: Klebsiella pneumoniae (non-producer); conditions: 21 isolates
[14] = test system: Enterobacter cloacae (non-CP-CRE); conditions: 10 isolates
[15] = test system: Citrobacter freundii (non-CP-CRE); conditions: 1 isolate
[16] = test system: Enterobacter amnigenus (non-CP-CRE); conditions: Lelliottia amnigena, 4 isolates
[17] = test system: Klebsiella pneumoniae (KPC/OXA); conditions: KPC/OXA co-producing, 2 isolates
[18] = test system: Klebsiella pneumoniae (OXA); conditions: 2 isolates
[19] = test system: Klebsiella pneumoniae (ESBL-producer, CTX-M); conditions: 24 isolates
[20] = test system: Klebsiella pneumoniae (non-CP-CRE); conditions: 22 isolates
[21] = test system: Escherichia coli (ESBL-producer, CTX-M); conditions: 29 isolates
[22] = test system: Escherichia coli (non-CP-CRE); conditions: 8 isolates
Escherichia coli (OXA) = conditions: 3 isolates

| Structure (SMILES) | MIC [1] [µg/mL] | MIC [2] [µg/mL] | MIC [3] [µg/mL] | MIC [4] [µg/mL] | MIC [5] [µg/mL] | MIC (Escherichia coli (IMP)) [µg/mL] | MIC [6] [µg/mL] | MIC (Escherichia coli (NDM)) [µg/mL] | MIC [7] [µg/mL] | MIC (Klebsiella oxytoca (VIM)) [µg/mL] | MIC (Escherichia coli (KPC)) [µg/mL] | MIC [8] [µg/mL] | MIC [9] [µg/mL] | MIC [10] [µg/mL] | MIC [11] [µg/mL] | MIC (Klebsiella oxytoca (KPC)) [µg/mL] | MIC [12] [µg/mL] | MIC [13] [µg/mL] | MIC [15] [µg/mL] | other results |
| --- | --- | --- | --- | --- | --- | --- | --- | --- | --- | --- | --- | --- | --- | --- | --- | --- | --- | --- | --- | --- |
| C[C@@H](O)[C@H]1C(=O)N2C(C(=O)O)=C(S[C@@H]3CN[C@H](C(=O)Nc4cccc(C(=O)O)c4)C3)[C@H](C)[C@H]12 [ERT, ertapenem] | > 16 | 2 | > 16 | > 16 | 1 | 4 | > 16 | > 16 | 16 | 0.5 | 8 | > 16 | 1 | > 16 | ≤ 0.125 | > 16 | > 16 | ≤ 0.125 | 2 | MIC [14]: 2 to 16 µg/mL |
| C[C@@H](O)[C@H]1C(=O)N2C(C(=O)O)=C(SCCN=CN)C[C@H]12 [IPM, imipenem] | 8 | > 16 | > 16 | > 16 | 2 | 1 | > 16 | 8 to 16 | 4 | 2 | 2 to 8 | > 16 | 4 | > 16 | 0.25 to 0.5 | > 16 | > 16 | 0.25 to 1 | 1 | MIC [16]: 8 to 16 µg/mL; MIC [17]: 4 to 16 µg/mL; MIC [18]: 2 to 4 µg/mL; MIC [19]: 0.25 to 1 µg/mL; MIC [20]: 0.5 to 16 µg/mL; MIC [21]: 0.25 to 1 µg/mL; MIC [22]: 0.5 to 16 µg/mL; MIC (Escherichia coli (OXA)): 0.5 to 8 µg/mL |
